# Counter-ions that a name gives are not always drawn.
# How the values were obtained:
# [1] = target: T1, α-adrenergic blockade (vas deferens specimen, contraction by noradrenalin) (Rattus norvegicus, UniProt P43140); assay: α-Adrenergic blockade effect (contraction response by noradrenalin of vas deferens specimen, Magnus method); parameters: species or system Wister male rat; conditions: for Kb: rat vas deferens, antagonism of noradrenalin contraction, pA2 = negative logarithm of antagonist dose shifting agonist curve two times, read-out: α-Adrenergic blockade effect, pA2 value (converted)
# T1 construct: from tissue; host or cells: vas deferens of six-week-old male Wistar rat
# T1 sequence (P43140 1-466): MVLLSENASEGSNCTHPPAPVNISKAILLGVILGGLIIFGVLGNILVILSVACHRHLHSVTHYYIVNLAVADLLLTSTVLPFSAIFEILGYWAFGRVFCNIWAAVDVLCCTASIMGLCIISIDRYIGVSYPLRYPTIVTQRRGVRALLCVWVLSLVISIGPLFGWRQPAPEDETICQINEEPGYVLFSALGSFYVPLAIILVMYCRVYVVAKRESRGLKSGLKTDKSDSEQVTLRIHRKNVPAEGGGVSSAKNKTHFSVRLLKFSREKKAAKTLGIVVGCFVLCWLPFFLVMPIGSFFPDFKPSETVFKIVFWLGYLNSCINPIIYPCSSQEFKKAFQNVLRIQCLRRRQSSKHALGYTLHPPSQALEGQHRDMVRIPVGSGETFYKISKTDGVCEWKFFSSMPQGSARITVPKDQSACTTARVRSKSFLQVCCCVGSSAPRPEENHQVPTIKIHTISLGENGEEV
# [2] = target: T2, calcium antagonism (thoracic aorta spiral specimen, contraction by calcium) (Cavia porcellus, UniProt O35505); assay: Calcium antagonistic effect (contraction response by calcium of spiral thoracic aorta specimen, Magnus method); parameters: species or system Hartly male giunea pig; conditions: guinea pig thoracic aorta; for Kb: antagonism of calcium contraction, read-out: Calcium antagonistic effect, pA2 value (converted)
# T2 construct: from tissue; host or cells: thoracic aorta spiral strip of male Hartley guinea pig
# T2 sequence (O35505 whole entry): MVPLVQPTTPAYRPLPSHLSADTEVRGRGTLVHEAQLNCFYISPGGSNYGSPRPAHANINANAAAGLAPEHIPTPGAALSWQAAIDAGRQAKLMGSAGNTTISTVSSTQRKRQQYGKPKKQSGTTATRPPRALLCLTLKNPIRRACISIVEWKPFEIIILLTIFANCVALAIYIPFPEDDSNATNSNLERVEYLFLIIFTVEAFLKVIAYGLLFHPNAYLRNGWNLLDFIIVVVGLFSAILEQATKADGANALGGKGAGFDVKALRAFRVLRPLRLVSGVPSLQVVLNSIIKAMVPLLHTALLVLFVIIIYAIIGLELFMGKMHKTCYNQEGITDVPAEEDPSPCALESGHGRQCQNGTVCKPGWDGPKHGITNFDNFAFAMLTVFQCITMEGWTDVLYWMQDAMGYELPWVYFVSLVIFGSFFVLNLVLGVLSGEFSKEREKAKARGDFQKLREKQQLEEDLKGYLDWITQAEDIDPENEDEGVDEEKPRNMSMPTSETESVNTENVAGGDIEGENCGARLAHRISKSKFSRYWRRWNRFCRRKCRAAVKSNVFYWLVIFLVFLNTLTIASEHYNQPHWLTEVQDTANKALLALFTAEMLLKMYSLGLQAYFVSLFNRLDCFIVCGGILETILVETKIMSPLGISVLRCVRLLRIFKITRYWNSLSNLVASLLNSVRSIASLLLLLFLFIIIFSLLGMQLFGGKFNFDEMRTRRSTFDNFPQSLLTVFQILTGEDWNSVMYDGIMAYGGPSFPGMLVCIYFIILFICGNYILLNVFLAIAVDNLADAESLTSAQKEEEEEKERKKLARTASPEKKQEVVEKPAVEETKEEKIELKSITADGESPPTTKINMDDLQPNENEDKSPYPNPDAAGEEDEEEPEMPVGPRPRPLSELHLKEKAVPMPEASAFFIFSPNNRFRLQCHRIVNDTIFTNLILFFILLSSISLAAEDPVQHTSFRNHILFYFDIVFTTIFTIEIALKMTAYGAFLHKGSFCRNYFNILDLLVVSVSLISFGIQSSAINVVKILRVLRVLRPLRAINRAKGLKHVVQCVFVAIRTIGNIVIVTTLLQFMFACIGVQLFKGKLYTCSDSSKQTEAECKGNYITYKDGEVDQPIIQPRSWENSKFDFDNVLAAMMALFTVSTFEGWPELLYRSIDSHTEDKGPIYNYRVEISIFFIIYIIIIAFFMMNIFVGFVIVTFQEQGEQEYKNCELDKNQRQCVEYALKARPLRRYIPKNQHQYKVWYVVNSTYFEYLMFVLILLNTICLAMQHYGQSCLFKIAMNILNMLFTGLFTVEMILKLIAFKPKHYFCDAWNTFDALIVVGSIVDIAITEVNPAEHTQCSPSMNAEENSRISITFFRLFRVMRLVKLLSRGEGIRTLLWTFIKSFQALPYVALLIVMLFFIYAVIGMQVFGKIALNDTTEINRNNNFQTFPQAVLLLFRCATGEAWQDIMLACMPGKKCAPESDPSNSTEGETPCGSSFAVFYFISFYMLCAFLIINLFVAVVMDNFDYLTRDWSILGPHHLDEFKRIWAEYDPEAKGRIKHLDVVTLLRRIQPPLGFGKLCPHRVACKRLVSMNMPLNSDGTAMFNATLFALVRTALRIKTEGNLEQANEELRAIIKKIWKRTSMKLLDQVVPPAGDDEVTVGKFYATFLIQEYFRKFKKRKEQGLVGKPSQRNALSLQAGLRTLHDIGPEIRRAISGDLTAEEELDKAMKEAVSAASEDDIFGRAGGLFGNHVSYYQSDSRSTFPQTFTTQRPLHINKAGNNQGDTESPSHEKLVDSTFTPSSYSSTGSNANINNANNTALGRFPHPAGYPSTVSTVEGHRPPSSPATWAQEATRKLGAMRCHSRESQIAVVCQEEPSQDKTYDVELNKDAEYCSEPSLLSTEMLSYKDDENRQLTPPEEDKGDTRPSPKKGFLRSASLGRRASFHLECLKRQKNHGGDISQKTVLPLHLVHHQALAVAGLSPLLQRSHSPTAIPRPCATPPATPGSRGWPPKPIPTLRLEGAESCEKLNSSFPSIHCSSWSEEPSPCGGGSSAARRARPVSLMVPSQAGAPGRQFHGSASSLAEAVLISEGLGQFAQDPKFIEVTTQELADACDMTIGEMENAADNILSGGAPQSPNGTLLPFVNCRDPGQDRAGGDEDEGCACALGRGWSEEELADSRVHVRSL
# Description: [Calcium antagonistic effect]
# Using a spiral blood vessel specimen taken from a thoracic aorta of Hartly male giunea pig weighed 400 to 600 g, a contraction response by calcium was measured as a dose-response curve according to Magnus method and the antagonistic activity for each test compound was indicated as above-mentioned pA2 value.
# [3] = Antihypertensive effect and effect on heart rate in spontaneously hypertensive rat (SHR); assay type: in vivo; conditions: po, single dose
# Description: [Antihypertensive effect and effect on a heart rate on rat suffering from a spontaneously hypertensive rat (SHR)]
# A blood pressure was measured under no anesthetic condition by means of an apparatus for recording a blood pressure of a tail artery and a heart rate (Riken Kaihatsu Co., Ltd.) (PS-802) and at the same time a heart rate was also measured.
# Each of test compounds was dissolved or suspended in an aqueous solution containing 5% by weight of acasia and the obtained solution or suspension was administered once orally to SHR which had been kept under a fast condition for one night. A blood pressure and a heart rate were measured before administration and after one hour, three hours, five hours and seven hours of it and the maximum value of changes were calculated by comparing the value measured before administration with the value measured after administration.
# For the purpose of a comparison, the same experiment as mentioned above was carried out on both Labetalol and Diltiazem as mentioned above.
# With respect to a dosage, 100 mg/kg and 10 mg/kg as to compounds obtained by Examples 2, 5, 6, 9 and 18 to 23 were respectively administered, 100 mg/kg as to compounds obtained by Examples 1, 3, 4, 7 and 10 to 17 was respectively administered.
# [4] = Increasing effect on a coronary blood flow (anesthetized dog); assay type: in vivo; conditions: administered once into perfusion channel
# Description: [Increasing effect on a coronary blood flow]
# Adult dog weighed 9 to 13 kg which was anesthetized intravenously with 30 mg/kg of pentobarbiturate was used for this experiment. The animal was cut open at a chest under a condition of an artificial respiration. After an intravenous injection of 1000 U/kg of heparin, a glass cannula was inserted into coronary ramus circumflexus by way of a left subclavina artery and a perfusion was carried out with blood introduced from a right carotid artery. A blood flow was measured by means of a electromagnetic flowmeter set up at a perfusion channel.
# Each of test compounds was dissolved in a physiologic salt solution and the solution was administered once into a perfusion channel. An increase of a coronary blood flow was indicated as a percentage of an increasing rate.
# For the purpose of a comparison, the same experiment as mentioned above was carried out on Papavelin which was commonly used as coronary vasodilator.
# [5] = Accute toxicity test (LD50 value); conditions: mouse, in vivo; mice; single oral administration; deaths by seventh day; Litchfield-Wilcoxon
# Description: [Accute toxicity test (LD50 value)]
# The experiment was carried out using six weeks old ddy male mice.
# Each of test compounds was suspended in an aqueous solution containing 5% by weight of acasia and the suspension was administered compulsorily once orally with a gastric probe. Within six hours after the start of the administration, the behavior of tested mice were observed consecutively. Thereafter, the observation was made at an interval of twenty four hours during 7 days and an accumulative number of deaths seventh day since the start of the administration was measured.
# LD50 value was calculated according to the Litchfield-Wilcoxon method.
# [6] = 100 mg/kg, maximum over 1, 3, 5, 7 hours (Table 3)
# [7] = 10 mg/kg, maximum over 1, 3, 5, 7 hours (Table 2)
# [8] = 100 mg/kg, maximum over 1, 3, 5, 7 hours (Table 2)
Compound,Kb [1] [µM],Kb [2] [µM],"Maximum value of change, heart rate [3, 6] [beats/min]","Maximum value of change, systolic pressure [3, 6] [mmHg]",Increasing rated of coronary blood flow when administered with a 1 mg [4] [%],LD50 at 168 h [5] [mg/kg],"Maximum value of change, heart rate [3, 7] [beats/min]","Maximum value of change, systolic pressure [3, 7] [mmHg]","Maximum value of change, heart rate [3, 8] [beats/min]","Maximum value of change, systolic pressure [3, 8] [mmHg]","α-Adrenergic blockade effect, relative ratio as compared with Phentolamine [1]","Calcium antagonistic effect, relative ratio as compared with Diltiazem ([2]; Diltiazem = 1.0)"
"CC(=O)c1cc2cccc(OCC(O)CN3CCN(c4cccc(Cl)c4)CC3)c2o1 (stereo not drawn) [Ex. 8 (HCl salt), 2-acetyl-7-{3-[4-(3-chlorophenyl)piperazinyl]-2-hydroxypropoxy}benzofuran]",0.468,0.0851,-98.4 ± 17.2,-44.2 ± 8.4,96.3 ± 13.1,> 1000,–,–,–,–,–,–
"COc1ccccc1N1CCN(CC(O)COc2cccc3cc(C(C)O)oc23)CC1 (stereo not drawn) [Ex. 22, 2-(1-hydroxyethyl)-7-{2-hydroxy-3-[4-(2-methoxyphenyl)piperazinyl]propoxy}benzofuran]",0.0501,1.05,–,–,87.7 ± 9.4,> 1500,-149.2 ± 15.3,-42.8 ± 6.7,-160.2 ± 19.8,-69.5 ± 7.9,–,–
COc1ccccc1N1CCN(CC(O)COc2ccc3oc(C(C)=O)cc3c2)CC1 (stereo not drawn) [Ex. 5 (HCl salt)],0.049,0.0468,–,–,107.5 ± 6.5,> 1500,–,–,–,–,3.2,1.9
"Cc1ccccc1N1CCN(CC(O)COc2ccc3cc(C(N)=O)oc3c2)CC1 (stereo not drawn) [Ex. 14, 2-carbamoyl-6-{2-hydroxy-3-[4-(2-methylphenyl)piperazinyl]-propoxy}benzofuran]",0.11,0.182,-132.9 ± 28.8,-67.3 ± 6.8,–,> 1000,–,–,–,–,–,–
"COc1ccccc1N1CCN(CC(O)COc2ccc3cc(C(N)=O)oc3c2)CC1 (stereo not drawn) [Ex. 11, 2-carbamoyl-6-{2-hydroxy-3-[4-(2-methoxyphenyl)piperazinyl]propoxy}benzofuran]",0.0575,0.158,-126.5 ± 27.3,-78.8 ± 7.6,–,> 1500,–,–,–,–,–,–
"COc1ccc(N2CCN(CC(O)COc3cccc4cc(C(C)=O)oc34)CC2)cc1 (stereo not drawn) [Ex. 3 (HCl salt), 2-acetyl-7-{2-hydroxy-3-[4-(4-methoxyphenyl)piperazinyl]-propoxy}benzofuran]",0.457,0.631,-200.0 ± 28.4,-22.9 ± 1.7,–,700,–,–,–,–,–,–
"COc1ccccc1N1CCN(CC(O)COc2cccc3cc(C(N)=O)oc23)CC1 (stereo not drawn) [Ex. 9, 2-carbamoyl-7-{2-hydroxy-3-[4-(2-methoxyphenyl)-piperazinyl]propoxy}benzofuran]",0.0275,0.631,–,–,105.6 ± 11.8,> 1500,-154.2 ± 17.3,-61.2 ± 4.3,-69.2 ± 12.1,-75.6 ± 2.4,–,–
"COc1ccccc1N1CCN(CC(O)COc2cccc3cc(C(C)=O)oc23)CC1 (stereo not drawn) [Ex. 2 (HCl salt), 2-acetyl-7-{2-hydroxy-3-[4-(2-methoxyphenyl)piperazinyl]-propoxy}benzofuran]",0.0389,0.195,–,–,88.4 ± 14.2,–,–,–,–,–,–,–
"COc1ccc(Cc2nccc3cc(OC)c(OC)cc23)cc1OC [papavelin, Papavelin, reference compound]",–,–,–,–,136.3 ± 27.0,–,–,–,–,–,–,–
"COc1ccc(N2CCN(CC(O)COc3cccc4cc(C(N)=O)oc34)CC2)cc1 (stereo not drawn) [Ex. 10, 2-carbamoyl-7-{2-hydroxy-3-[4-(4-methoxyphenyl)piperazinyl]porpoxy,}benzofuran]",0.0871,1.26,-80.0 ± 37.6,-97.9 ± 4.0,–,1100,–,–,–,–,1.8,–
NC(=O)c1cc2cccc(OCC(O)CN3CCN(c4cccc(Cl)c4)CC3)c2o1 (stereo not drawn) [Ex. 15],3.02,0.398,-100.0 ± 19.5,-79.9 ± 11.9,–,> 1000,–,–,–,–,–,–
"Cc1ccccc1N1CCN(CC(O)COc2cccc3cc(C(N)=O)oc23)CC1 (stereo not drawn) [Ex. 13, 2-carbamoyl-7-{2-hydroxy-3-[4-(2-methylphenyl)piperazinyl]propoxy}benzofuran]",0.24,1.35,-80.0 ± 16.6,-97.0 ± 9.8,–,> 1500,–,–,–,–,–,–
COc1ccccc1N1CCN(CC(O)COc2ccc3oc(C(N)=O)cc3c2)CC1 (stereo not drawn) [Ex. 12],0.1,1.17,-110.0 ± 20.0,-100.2 ± 3.9,–,> 1500,–,–,–,–,1.6,–
"CC(=O)c1cc2cccc(OCC(O)CN3CCN(c4ccccc4)CC3)c2o1 (stereo not drawn) [Ex. 1 (HCl salt), 2-acetyl-7-[3-(4-phenylpiperazinyl)-2-hydroxypropoxy]benzofuran]",0.209,2.95,-105.8 ± 3.4,-74.6 ± 5.6,–,> 1000,–,–,–,–,–,–
"Cc1ccccc1N1CCN(CC(O)COc2cccc3cc(C(C)O)oc23)CC1 (stereo not drawn) [Ex. 23, 2-(1-hydroxyethyl)-7-{2-hydroxy-3-[4-(2-methylphenyl)piperazinyl]propoxy}benzofuran]",0.0776,0.589,–,–,–,> 1000,-93.4 ± 17.6,-54.9 ± 9.4,-131.4 ± 22.3,-73.1 ± 9.2,–,–
